Experimental data as given in patent publication US20160280736A1, “CYCLIC PEPTIDE COMPOUND, AND PREPARATION METHOD, PHARMACEUTICAL COMPOSITION AND USE THEREOF” (HANGZHOU GUANYU BIO-MEDICAL CO., LTD., priority 2013, published 2016).
Like-named read-outs stand apart in the source and are kept apart here.

Tests used:
[1] = target: T1, HDAC7 (Homo sapiens, UniProt Q8WUI4); test: HDAC biochemical activity measurement (fluorescent substrate deacetylation); settings: HDAC7 enzyme, 37°, 30 minutes
T1 sequence (Q8WUI4 1-952): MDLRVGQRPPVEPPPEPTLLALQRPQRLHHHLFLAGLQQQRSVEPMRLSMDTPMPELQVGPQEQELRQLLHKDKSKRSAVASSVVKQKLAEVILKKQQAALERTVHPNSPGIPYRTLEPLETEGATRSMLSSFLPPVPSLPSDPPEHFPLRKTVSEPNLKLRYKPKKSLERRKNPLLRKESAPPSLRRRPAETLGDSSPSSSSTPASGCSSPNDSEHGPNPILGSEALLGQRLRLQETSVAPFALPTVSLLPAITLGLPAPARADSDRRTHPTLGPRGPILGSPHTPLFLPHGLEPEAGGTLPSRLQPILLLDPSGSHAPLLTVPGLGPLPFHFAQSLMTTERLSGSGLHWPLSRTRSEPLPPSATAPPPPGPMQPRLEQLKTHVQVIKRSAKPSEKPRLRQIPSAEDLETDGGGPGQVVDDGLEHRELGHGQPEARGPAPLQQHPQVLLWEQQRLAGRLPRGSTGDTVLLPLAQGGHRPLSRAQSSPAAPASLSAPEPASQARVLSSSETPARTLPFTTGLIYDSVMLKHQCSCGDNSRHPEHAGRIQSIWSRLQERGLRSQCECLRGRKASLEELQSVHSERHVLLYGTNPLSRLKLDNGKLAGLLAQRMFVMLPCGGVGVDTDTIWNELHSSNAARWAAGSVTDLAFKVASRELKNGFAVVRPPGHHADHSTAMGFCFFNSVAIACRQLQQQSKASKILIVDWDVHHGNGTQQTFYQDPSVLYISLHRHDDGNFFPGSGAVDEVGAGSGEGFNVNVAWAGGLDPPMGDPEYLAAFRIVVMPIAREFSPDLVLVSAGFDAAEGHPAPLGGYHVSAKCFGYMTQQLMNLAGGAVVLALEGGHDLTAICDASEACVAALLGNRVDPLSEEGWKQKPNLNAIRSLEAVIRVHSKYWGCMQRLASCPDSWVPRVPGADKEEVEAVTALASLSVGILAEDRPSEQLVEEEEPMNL
Method: Measurement principle: The chemical activity of the compound is determined according to the degree of deacetylation inhibition of the HDAC enzyme. […] After the substrate containing an acetylated lysine side chain and HDAC enzyme are labeled with a fluorescent label, the fluorescent substrate is de acetyl. The fluorescent labeled substrate is cleaved by the enzyme, and the fluorescent substance is released, which generates 460 nm emission light under the excitation of 360 nm light.
Specific steps: HDAC substrate was diluted with reaction buffer to 200M (reaction concentration of 20M), the HDAC enzyme was diluted to the appropriate concentration, then added different concentrations of the test compounds and acted at 37 ? 30 minutes, and then added the same volume of 2-times concentration substrate developing solution (developer), incubated at room temperature for 15 minutes. Finally, the last reading measured with a microplate plate reader, excitation light was 360 nm, the emitted light was 460 nm, data processing software was Prime 4, and the results are shown in Table 1.

[2] = system: A549 (human lung cancer cells); test: MTT cancer cell growth inhibition; assay type: cell-based; settings: 72 hours incubation
Text: (§1) MTT assay principle is yellow MTT can penetrate membrane into the cell, succinic dehydrogenase of the mitochondria in living cells can make exogenous MTT reduction of insoluble in water of blue-violet acicular formazan for crystallization and deposition in the cell, crystallization can be dissolved dimethyl sulfoxide (DMSO) solution, detected its absorbance at 490 nm/570 nm wavelength by enzyme-linked immunosorbent assay, which can reflect the number of cells.
(§2) Using DMEM+10% FBS culture medium or using 1640+10% FBS culture, respectively.
(§3) Experimental group: 190 μl cell suspension+10 μl different concentrations of drugs (the final concentration is 10^−5˜10^−10 M)
(§4) a) Cells were seeded in 96-well plates with the inoculation of 1500/well, 190 μl/hole, 37° C., 5% of CO2 incubator overnight;
(§5) b) The next day each well was added 10 μl of different drugs. The final concentration of drug was 10^−5˜10^−10 M, three parallel holes; 37° C., 5% CO2 culture incubator for 72 hours incubation;
(§6) c) Per well was added 20 μl 5 mg/ml of MTT, 37° C., 5% CO2 culture incubator for 4 hours incubation;
(§7) d) The supernatant was discarded. Each well was added 100 μl of DMSO and oscillation;
(§8) e) 570 nm readings. Calculate cell viability. GI50 calculation based on the results.

[3] = system: BGC-823 (human gastric cancer cells); test: MTT cancer cell growth inhibition; assay type: cell-based; settings: 72 hours incubation
Text: as §1, §2, §3, §4, §5, §6, §7, §8

[4] = system: DU145 (human prostate cancer cells); test: MTT cancer cell growth inhibition; assay type: cell-based; settings: 72 hours incubation
Text: as §1, §2, §3, §4, §5, §6, §7, §8

[5] = system: HT1080 (human fibrosarcoma cells); test: MTT cancer cell growth inhibition; assay type: cell-based; settings: 72 hours incubation
Text: as §1, §2, §3, §4, §5, §6, §7, §8

[6] = system: Hela (human cervical cancer cells); test: MTT cancer cell growth inhibition; assay type: cell-based; settings: 72 hours incubation
Text: as §1, §2, §3, §4, §5, §6, §7, §8

[7] = system: MOLT-4 (human acute lymphoblastic leukemia cells); test: MTT cancer cell growth inhibition; assay type: cell-based; settings: 72 hours incubation
Text: as §1, §2, §3, §4, §5, §6, §7, §8

[8] = system: PANC-1 (Pac-1, human pancreatic cancer cells); test: MTT cancer cell growth inhibition; assay type: cell-based; settings: 72 hours incubation
Text: as §1, §2, §3, §4, §5, §6, §7, §8

[9] = system: lncap (prostate cancer cells); test: MTT cancer cell growth inhibition; assay type: cell-based; settings: 72 hours incubation
Text: as §1, §2, §3, §4, §5, §6, §7, §8

[10] = system: MCF-7 (human breast cancer cells); test: MTT cancer cell growth inhibition; assay type: cell-based; settings: 72 hours incubation, MCF-7 cells
Text: as §1, §2, §3, §4, §5, §6, §7, §8

[11] = system: U937 (human leukemia cells); test: MTT cancer cell growth inhibition; assay type: cell-based; settings: 72 hours incubation
Text: as §1, §2, §3, §4, §5, §6, §7, §8

[12] = system: N-87 (human gastric cancer cells); test: MTT cancer cell growth inhibition; assay type: cell-based; settings: 72 h, N-87 cells, 72 hours incubation
Text: as §1, §2, §3, §4, §5, §6, §7, §8

[13] = BGC-823 cells, read-out: GI50 BGC8
[14] = DU145 cells, read-out: GI50 Du14
[15] = HT1080 cells, read-out: GI50 HT10
[16] = Hela cells, read-out: GI50 Hela
[17] = MOLT-4 cells, read-out: GI50 Molt-
[18] = lncap cells, read-out: GI50 lncap

Structure (SMILES)	IC50 (μM) HDAC7 [1]	GI50 [3, 13] [µM]	GI50 [4, 14] [µM]	GI50 [5, 15] [µM]	GI50 [6, 16] [µM]	GI50 [10] [nM]	GI50 [7, 17] [µM]	GI50 [9, 18] [µM]	also measured
C/C=C1\NC(=O)c2nc(F)cc(n2)CNC(=O)C[C@@H](/C=C/CCSC(C)=O)OC(=O)[C@H](C(C)C)NC1=O [Compound 98]	no activity	–	–	–	–	–	–	–	GI50 ([2]; drug concentration required for 50% of cell growth inhibition, read-out: GI50 (μM) A549): 0.601 µM; GI50 ([3]; drug concentration required for 50% of cell growth inhibition, read-out: GI50 (μM) BGC8): 0.052 µM; GI50 ([4]; drug concentration required for 50% of cell growth inhibition, read-out: GI50 (μM) Du14): 0.042 µM; GI50 ([5]; drug concentration required for 50% of cell growth inhibition, read-out: GI50 (μM) HT10): 0.083 µM; GI50 ([6]; drug concentration required for 50% of cell growth inhibition, read-out: GI50 (μM) Hela): 0.052 µM; GI50 ([7]; drug concentration required for 50% of cell growth inhibition, read-out: GI50 (μM) Molt-): 0.025 µM; GI50 ([8]; drug concentration required for 50% of cell growth inhibition, read-out: GI50 (μM) PAN): 0.083 µM; GI50 ([9]; drug concentration required for 50% of cell growth inhibition, read-out: GI50 (μM) lncap): 0.025 µM
C/C=C1\NC(=O)c2nc(cc(SC)n2)CNC(=O)C[C@@H](/C=C/CCSC(C)=O)OC(=O)[C@H](C(C)C)NC1=O [Compound 216]	no activity	0.066	0.029	0.058	0.076	55	0.046	0.016	GI50 ([8]; PANC-1 cells, read-out: GI50 PAN): 0.021 µM; GI50 [11]: 86 nM
C/C=C1\NC(=O)c2cccc(n2)CNC(=O)C[C@@H](/C=C/CCSC(=O)CCCCCCC)OC(=O)[C@H](C(C)C)NC1=O [Compound 1]	–	–	–	–	–	–	–	–	GI50 ([7]; Homo sapiens, MOLT-4, 72 h, drug concentration required for 50% of cell growth inhibition, read-out: GI50 (μM) Molt-): 0.005 µM
C/C=C1\NC(=O)c2nc(ccc2F)CNC(=O)C[C@@H](/C=C/CCSC(C)=O)OC(=O)[C@H](C(C)C)NC1=O [Compound 93]	–	–	–	–	–	–	–	–	GI50 [12]: 28 nM
C/C=C1\NC(=O)c2cc(SC)cc(n2)CNC(=O)C[C@@H](/C=C/CCSC(C)=O)OC(=O)[C@H](C(C)C)NC1=O [Compound 224]	no activity	0.038	0.051	0.095	0.067	43	0.033	0.034	GI50 ([2]; A549 cells, read-out: GI50 A549): 0.058 µM
